# Measurements as given in US7442529B2, “Fluorescent probes for biological studies” (Massachusetts Institute of Technology, priority 2005, dated 2008).
# Structures can show the parent of a compound that is named as a salt. Non-standard residues stand in square brackets, D forms with d. Residues, ends and D or L forms follow the SMILES beside them. Dap(6-DMN) = CN(C)c1ccc2cc3c(cc2c1)C(=O)N(C[C@H](N)C(=O)O)C3=O; pY = N[C@@H](Cc1ccc(OP(=O)(O)O)cc1)C(=O)O
# Key:
# [1] = target: T1, GST-Abl SH2 (Homo sapiens, UniProt P00519); assay: Fluorescence titration of peptides with GST-Abl SH2, determination of Kd; format: binding
# T1 construct: The SH2 domain was cloned using BamH1 (5′) EcoR1 (3′) sites; made in house; host or cells: E. coli (plasmid received from elsewhere; strain not clearly stated for Abl)
# T1 sequence (P00519 127-217 limits assumed): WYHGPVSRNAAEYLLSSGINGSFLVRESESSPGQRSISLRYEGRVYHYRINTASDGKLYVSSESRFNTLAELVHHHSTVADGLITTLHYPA
# Protocol: (§1) The peptides of Table 1 were incubated with targeted and nontargeted SH2 domains. The binding of peptides Crk-bp, Crk-bp2, Abl-bp, and Abl-bp2 to SH2 target domains can be studied by fluorescence titration as shown in FIGS. 1-4.
# Fluorescence titrations of Abl-bp with non-targeted GST-PI3K SH2 and […] are shown in FIG. 2 (b) and 4 (c), respectively. The relative fluorescence emission intensities for the Abl-bp peptide and aforementioned SH2 domain titrations are shown in FIG. 2 (c).
# Fluorescence titrations Abl-bp2 with non-targeted GST-PI3K SH2 and GST-Crk SH2 are shown in FIGS. 3 (b) and 4 (d), respectively. The relative fluorescence emission intensities for the Abl-bp2 peptide and aforementioned SH2 domain titrations are shown in FIG. 3 (c).
# (§2) Peptide stock solutions of known concentration (determined by UV absorbance at 388 nm, E=7980 M−1 cm−1) were used to prepare 5 μM peptide concentration samples in buffered water (150 μL total volume, 100 mM NaCl, 10 mM sodium phosphate, pH 7.5). 2 μL aliquots of the corresponding stock protein solution (GST-Crk SH2, GST-Abl SH2 or GST-PI3K SH2, concentration determined by Bio-Rad Protein Assay) were consecutively added, and fluorescence emission spectra were recorded 1 minute after each addition ([…], 2 nm excitation and emission slit width). The increase in emission intensity at the maximum emission wavelength was plotted against total protein concentration and fitted by least-square analysis assuming a 1 to 1 binding mode to obtain the apparent Kd.
# Abl-SH2 was received as a GST fusion in a pGEX-KT vector, amp-resistant, IPTG-inducible. The SH2 domain was cloned using BamH1 (5′) EcoR1 (3′) sites.
# [2] = tested on: GST-PI3K SH2; assay: Fluorescence titration of peptides with GST-PI3K SH2 (non-target domain); format: binding; details: peptide saturated with GST-PI3K SH2, 565 nm (FIG. 1c)
# Protocol: as §1
# (§3) Fluorescence titrations of Crk-bp and Crk-bp2 with targeted GST-Crk SH2 are shown in FIG. 1 (a) and (b), respectively. Fluorescence titrations of Crk-bp and Crk-bp2 with non-targeted GST-Abl SH2 are shown in FIG. 4 (a) and (b), respectively.
# Peptide stock solutions of known concentration (determined by UV absorbance at 388 nm, E=7980 M−1 cm−1) were used to prepare 5 μM peptide concentration samples in buffered water (150 μL total volume, 100 mM NaCl, 10 mM sodium phosphate, pH 7.5). 2 μL aliquots of the corresponding stock protein solution (GST-Crk SH2, GST-Abl SH2 or GST-PI3K SH2, concentration determined by Bio-Rad Protein Assay) were consecutively added, and fluorescence emission spectra were recorded 1 minute after each addition (excitation 395 nm, 2 nm excitation and emission slit width). […]
# Src and PI3K SH2 domains were expressed and purified as GST fusion following reported procedures. […] Proteins were quantified using the Micro BCA protein Assay Kit (Pierce) relative to a BSA standard. All fusion proteins were analyzed by Coomasie staining and Western analysis with anti-GST antibodies.
# [3] = target: GST-Crk SH2 (Homo sapiens, UniProt P46108); assay: Fluorescence titration of peptides with GST-Crk SH2, determination of Kd; format: binding; parameters: Human Crk SH2 domain was expressed as a GST fusion protein; made in house; host or cells: E. coli NB42
# Protocol: as §1, §3, §2
# Human Crk SH2 domain was expressed as a GST fusion protein transformed into E. coli NB42 strain. Expression of SH2 domains was carried out following reported conditions. […]
# [4] = Photophysical properties: UV absorbance, fluorescence emission and quantum yield in different solvents; format: physicochemical; details: for quantum yield (Φ): vs. quinine sulfate standard
# Protocol: Quantum yields (Φ) were measured by comparison with a standard, which emits in a similar region to the test sample. From the available standard compounds quinine sulfate in 0.1 M H2SO4 (Φ=0.54) was selected.
# UV absorbance at the excitation wavelength (375 nm), and fluorescence emission spectra of a series of solutions of the standard and compound were recorded. Solutions were prepared with different absorbances, ranging from 0 (solvent blank) to 0.1. A series of graphs of integrated fluorescence vs. absorbance were obtained. The data were fitted to a linear equation with gradient (grad), and intercept=0. See FIG. 5 as an example of the plots obtained.
# The gradients of graphs in FIG. 5 are proportional to the quantum yield of the different samples. Absolute values were calculated using the standard sample, which has a fixed and known fluorescence quantum yield value, according to the following equation: […]
# Where the subscripts std and x denote standard and test respectively. The value Φ is the fluorescence quantum yield, grad is the gradient (grad) from the plot of integrated fluorescence intensity vs. absorbance, and η the refractive index of the solvent.
# The UV absorbance spectra (40 μM in methanol) and fluorescence emission spectra of compound (VIII), 6DMN-GlyOMe are shown in FIG. 6 and tabulated in Table 4. The UV spectrum of 6DMN-GlyOMe has an intense absorption band at 378 nm which is not found in unsubstituted 2,3-naphthalimides. The maximum excitation wavelength of 6DMN-GlyOMe is at 375 nm.
# Quantum yields (Φ) were measured in the solvents listed in Table 2 by comparison with a standard, which emits in a similar region to 6DMN-GlyOMe. Quinine sulfate in 0.1 M H2SO4 (Φ=0.54) was used as the standard. (Melhuish, W. B. J. Phys. Chem., 1961, 65, 229-235). Solutions were prepared at different concentrations such that the absorbance measurements ranged between 0 and 0.1 at and above the excitation wavelength to avoid non-linear effects.
# UV absorbance at the excitation wavelength (375 nm), and fluorescence emission spectra of a series of solutions of the standard and 6DMN-GlyOMe were recorded. A series of graphs of integrated fluorescence vs. absorbance were obtained. The data were fitted to a linear equation with gradient (grad), and intercept=0. The gradient (grad) is proportional to the quantum yield of the sample. Absolute values were calculated using the standard sample, which has a fixed and known fluorescence quantum yield value, according to the equation above.
# [5] = Lippert-Mataga plot: Stokes shift vs. orientation polarizability; format: physicochemical; details: from Stokes shift in 1,4-dioxane/acetonitrile mixtures
# Description: This can be estimated from a Lippert-Mataga plot, which is essentially a plot of the Stokes shift of the fluorescence emission versus the solvent polarity. (Lippert, V. E. Z. Elektrochem. 1957, 61, 962-975; Mataga, N.; Kaifu, Y.; Koizumi, M. Bull. Chem. Soc. Jpn. 1956, 29, 465-470.)
# The difference (Δ v) in the maximum absorption ( vA) and emission wavelengths ( vF), known as the Stokes shift and expressed in wavenumbers, is plotted vs. Δf. The term Δf is called the orientation polarizability and can be calculated according to the following equation:
# [formula] where ε is the solvent dielectric constant and n is the solvent refraction index.
# The term Δf can also be calculated for a mixture of solvents. […] In this case, Δf is obtained for each mixture using ε and n values calculated using the molar fractions (χ) in the equation as follow: ε=(χacetonitrile)(38.8)+(χdiox)(2.218) (3) n=(χacetonitrile)(1.3442)+(χdiox)(1.4224) (4) where χacetonitrile+χdiox=1.
# The relationship between Δ v and Δf is expressed by the following equation:
# [formula] where c is the velocity of light, h is Plank's constant, μe−μg is the difference between the dipole moments of the excited and the ground states respectively (Δμ), and α0 is the radius of the Onsager cavity around the compound.
# [6] = in 0.1 M H2SO4; Melhuish 1961; cited from earlier work
compound,measurement,setting,value
"CC[C@H](C)[C@H](NC(=O)[C@H](CC(N)=O)NC(=O)[C@@H]1CCCN1C(=O)[C@H](Cc1c[nH]cn1)NC(=O)[C@H](CC(=O)O)NC(=O)[C@H](Cc1ccc(OP(=O)(O)O)cc1)NC(=O)[C@H](CCC(N)=O)NC(=O)[C@H](CN1C(=O)c2cc3ccc(N(C)C)cc3cc2C1=O)NC(=O)CNC(C)=O)C(N)=O [Crk-bp2, Ac-Gly-Dap(6DMN)-Gln-pTyr-Asp-His-Pro-Asn-Ile-(CONH2) (SEQ ID NO: 5)] (Ac-G[Dap(6-DMN)]Q[pY]DHPNI-NH2)",relative fluorescence emission intensity with non-target SH2 domain compared with targeted GST-Crk SH2,"[1]; peptide saturated with GST-Abl SH2, 565 nm (FIG. 1c)",notably less
same,relative fluorescence emission intensity with non-target SH2 domain compared with targeted GST-Crk SH2,[2],notably less
"CC[C@H](C)[C@H](NC(=O)[C@H](CC(N)=O)NC(=O)[C@@H]1CCCN1C(=O)[C@H](Cc1c[nH]cn1)NC(=O)[C@H](CC(=O)O)NC(=O)[C@H](Cc1ccc(OP(=O)(O)O)cc1)NC(=O)[C@H](CCC(N)=O)NC(=O)[C@H](CN1C(=O)c2cc3ccc(N(C)C)cc3cc2C1=O)NC(=O)[C@H](CCC(=O)O)NC(C)=O)C(N)=O [Crk-bp, Ac-Glu-Dap(6DMN)-Gln-pTyr-Asp-His-Pro-Asn-Ile-(CONH2) (SEQ ID NO: 1)] (Ac-E[Dap(6-DMN)]Q[pY]DHPNI-NH2)",Kd,[3],4.8 ± 2 µM
same,Fluorescence increase,"[3]; target Crk SH2, excitation 375 nm, emission 565 nm",500%^b
COC(=O)CN1C(=O)c2cc3ccc(N(C)C)cc3cc2C1=O [Peptide 6DMN-GlyOMe],maximum excitation wavelength,[4],375 nm
same,intense absorption band of the UV spectrum,[4]; 40 μM in methanol,378 nm
same,absorbance maximum,"[4]; 1,4-dioxane",372 nm
same,emission maximum,"[4]; 1,4-dioxane",498 nm
same,quantum yield (Φ),"[4]; 1,4-dioxane",0.220
same,absorbance maximum,[4]; 2-propanol,385 nm
same,emission maximum,[4]; 2-propanol,589 nm
same,quantum yield (Φ),[4]; 2-propanol,0.018
same,absorbance maximum,[4]; DMF,380 nm
same,emission maximum,[4]; DMF,545 nm
same,quantum yield (Φ),[4]; DMF,0.155
same,absorbance maximum,[4]; acetone,375 nm
same,emission maximum,[4]; acetone,532 nm
same,quantum yield (Φ),[4]; acetone,0.148
same,absorbance maximum,[4]; acetonitrile,380 nm
same,emission maximum,[4]; acetonitrile,549 nm
same,quantum yield (Φ),[4]; acetonitrile,0.135
same,absorbance maximum,[4]; chloroform,380 nm
same,emission maximum,[4]; chloroform,509 nm
same,quantum yield (Φ),[4]; chloroform,0.225
same,absorbance maximum,[4]; dichloromethane,379 nm
same,emission maximum,[4]; dichloromethane,517 nm
same,quantum yield (Φ),[4]; dichloromethane,0.210
same,absorbance maximum,[4]; ethanol,379 nm
same,emission maximum,[4]; ethanol,584 nm
same,quantum yield (Φ),[4]; ethanol,0.027
same,absorbance maximum,[4]; methanol,382 nm
same,emission maximum,[4]; methanol,589 nm
same,quantum yield (Φ),[4]; methanol,0.012
same,absorbance maximum,[4]; tetrahydrofuran,373 nm
same,emission maximum,[4]; tetrahydrofuran,510 nm
same,quantum yield (Φ),[4]; tetrahydrofuran,0.147
same,absorbance maximum,[4]; toluene,373 nm
same,emission maximum,[4]; toluene,491 nm
same,quantum yield (Φ),[4]; toluene,0.208
same,absorbance maximum,[4]; water,388 nm
same,emission maximum,[4]; water,592 nm
same,increase in the dipole moment between ground and excited state,[5],5.5 D
C=C[C@H]1C[N@@]2CC[C@H]1C[C@H]2[C@H](O)c1ccnc2ccc(OC)cc12 [quinine sulfate],quantum yield (Φ) of the standard,[6],0.54
Ac-Dap(6DMN)-Gln-pTyr-Glu-Asn-Val-Gln-Ser-(CONH2) (SEQ OD NO: 7) [Abl-bp2],Kd,"[1]; target Abl SH2, 20 μM in PBS buffer, pH 7.5",12 ± 2 µM
Ac-Gly-Dap(6DMN)-Gln-pTyr-Glu-Asn-Val-Gln-Ser-(CONH2) (SEQ ID NO: 6) (Ac-G[Dap(6DMN)]Q[pY]ENVQS-NH2) [Abl-bp],Fluorescence increase,"[1]; target Abl SH2, excitation 375 nm, emission 599 nm",400%^c
same,quantum yield (Φ),"[4]; water, calculated using peptide Abl-bp",0.002
